Measurements: US9763444B2, “Compositions and methods for repelling blood-sucking and biting insects, ticks and mites” (The United States of America, as represented by the …, priority 2013, dated 2017)

What was measured:
[1] = test system: Ae. aegypti; experiment: Minimum Effective Dosage (MED) test on treated cloth, mosquito repellency; type: in vivo, Aedes aegypti; conditions: for Ae. aegypti Minimum Effective Dosage, M9: human subject M9; for Ae. aegypti Minimum Effective Dosage, M10: human subject M10
Description: Bioassay for mosquito repellent activity: Repellency screening test for experimental chemicals were carried out to identify candidates that might be useful repellents. The repellent efficacy was compared to that of the standard repellent, DEET. Experimental compounds were assessed in one of two ways: (1) a range of concentration was evaluated to determine the minimum effective dosage (MED) which was the concentration threshold of where the repellent began to fail and allowed bites, or (2) a predetermined concentration of each repellent was applied to cloth and the activity was evaluated over several days (or in some cases months) (Katritzky, A. R., et al., Proc. Nat. Acad. Sci. (US), 105, 7359-7364 (2008); Katritzky, A. R., et al., Journal of Med. Entomol., 47: 924-938 (2010)). When conducting assays for repellency, a failure point was also predetermined for those measurements. Since experiments described herein used about 500 female mosquitoes per test, the failure point was set at 1% (equal to 5 bites) received during a test interval. From 3 to 5 volunteers participated in the screening of each set of chemicals.
Minimum Effective Dosage (MED) Test: The MED bioassays on treated cloth were a method of screening to determine the minimum amount of a repellent needed to prevent bites. Experimental compounds were prepared in solution by combining 0.15 g of experimental chemical with 2 mL of acetone in a 7.1 mL screwtop glass vial. This solution was then serially diluted to obtain nine concentrations when applied on to the cloth patch: 1.5, 0.75, 0.375, 0.187, 0.094, 0.047, 0.023, 0.011, and 0.006 mg/cm^2. The standard N,N-diethyl-3-methylbenzamide (DEET) was also tested at the same concentration levels to serve as a control and a comparison for relative repellency. A 50 cm^2 (5 cm×10 cm) patch of muslin cloth was rolled lengthwise and placed into each of the glass vials and scaled with a screwtop so it soaked up the solution. Just prior to the experiment, the pieces of treated cloth were removed from the vials, affixed to card stock tabs (5 cm×3 cm) with staples, and hung with masking tape on a rack to dry and allow acetone to evaporate. Volunteers wore a latex glove over their hands, a nylon stocking over their arm, and then wrapped a plastic Velcro-sealed sleeve over their entire forearm with a 32 cm^2 (4 cm×8 cm) window cut-out to allow mosquitoes to bite through. The nylon stocking acted as a barrier between the dried cloth and the skin, an additional precaution with experimental compounds. Dried cloth patches were stretched across the window in the plastic sleeve and held in place with masking tape. Volunteers placed their sleeve-covered arms into a screened cage for a one minute period with approximately 500 female Ae. aegypti mosquitoes that had been preselected for host-seeking behavior using a draw box (Posey, K. H., and C. E. Schreck, Mosquito News, 41: 566-568 (1981)). […] The MED recorded was the lowest passing concentration level tested for the experimental compound. […] All human volunteers in the study provided informed consent to participate of a protocol approved by the University of Florida Human Use Institutional Review Board (IRB #636-2005).

[2] = test system: female Aedes aegypti; experiment: Knock down (KD) after forced contact with treated muslin cloth (insecticidal properties); type: in vivo; conditions: 2 min forced exposure to treated cloth
Description: The minimum effective dosage (MED) for repellency of 99% of mosquitoes was determined by wearing treated muslin cloth with varying concentrations of the chemical. At a surface concentration of 0.011 mg/cm^2, nearly all mosquitoes are repelled from the surface. The insecticidal properties required a much higher concentration of 2. All tests were conducted by forcing mosquitoes (5 per replicate×5 replicates) into contact with treated muslin cloth.

[3] = Table 1 preliminary assay, human subject M4, highest concentration 1.500 mg/cm^2
[4] = Table 1 preliminary assay, human subject M5, highest concentration 1.500 mg/cm^2
[5] = Table 1 preliminary assay, human subject M8, highest concentration 1.500 mg/cm^2
[6] = Table 1 preliminary assay, highest concentration 1.500 mg/cm^2
[7] = Table 1 preliminary assay, mean of 5 volunteers
[8] = Table 5, subject M4, highest dose 0.375 mg/cm2 (0.187 for 7)
[9] = Table 5, subject M5, highest dose 0.375 mg/cm2 (0.187 for 7)
[10] = Table 5, subject M8, highest dose 0.375 mg/cm2 (0.187 for 7)

SMILES	mosquito repellent activity against Ae. aegypti (in words) ([1]; MED test on treated cloth)	Ae. aegypti Minimum Effective Dosage, M4 [1, 3] [mg/cm^2]	Ae. aegypti Minimum Effective Dosage, M5 [1, 4] [mg/cm^2]	Ae. aegypti Minimum Effective Dosage, M8 [1, 5] [mg/cm^2]	Ae. aegypti Minimum Effective Dosage, M9 [1, 6] [mg/cm^2]	Ae. aegypti Minimum Effective Dosage, M10 [1, 6] [mg/cm^2]	Ae. aegypti Minimum Effective Dosage, Average [1, 7] [mg/cm^2]	Ae. aegypti Minimum Effective Dosage, F1 ([1]; Table 2, human subject F1, highest concentration 1.500 mg/cm^2) [mg/cm^2]	Ae. aegypti Minimum Effective Dosage, M1 ([1]; Table 2, human subject M1, highest concentration 1.500 mg/cm^2) [mg/cm^2]	Ae. aegypti Minimum Effective Dosage, M2 ([1]; Table 2, human subject M2, highest concentration 1.500 mg/cm^2) [mg/cm^2]	Ae. aegypti Minimum Effective Dosage, Average ([1]; Table 2, mean of 3 volunteers) [mg/cm^2]	Ae. aegypti Minimum Effective Dosage, Average ([1]; Table 5, mean of 3 volunteers) [mg/cm^2]	Ae. aegypti Minimum Effective Dosage, M4 [1, 8] [mg/cm^2]	Ae. aegypti Minimum Effective Dosage, M5 [1, 9] [mg/cm^2]	Ae. aegypti Minimum Effective Dosage, M8 [1, 10] [mg/cm^2]	MED for ~100% Repellency (ED99), surface concentration ([1]; Table 7, treated cloth, female Aedes aegypti) [mg/cm^2]	KD100 @ 1 h, surface concentration ([2]; knock down counted after 1 h) [mg/cm^2]	KD100 @ 5 h, surface concentration ([2]; knock down counted after 5 h) [mg/cm^2]	KD100 @ 8 h, surface concentration ([2]; knock down counted after 8 h) [mg/cm^2]
CC1(C)C=Cc2c(CO)cccc2O1 [Compound 2]	act as mosquito repellents	0.011	0.011	0.011	0.094	0.047	0.035	0.023	0.023	0.023	0.023	0.009	0.011	0.011	0.006	0.011	15.38	7.69	0.96
CCN(CC)C(=O)c1cccc(C)c1 [DEET, N,N-diethyl-3-methylbenzamide, reference compound]	–	0.111	0.023	0.023	0.023	0.023	0.021	–	–	–	–	0.015	0.011	0.011	0.023	–	–	–	–
